US20100048657A1, “CONTROL OF MALIGNANT CELLS PROLIFERATION THROUGH THE INHIBITION OF CASEIN KINASE 2” (CLEVELAND STATE UNIVERSITY, priority 2006, published 2010)

Assays:
MEG-01 cells [1] = assay: Viability (proliferation) assay, Trypan blue exclusion; details: for proliferation rate / cell number of MEG-01 cells: 4 days of treatment
Text: In order to check the effect of CK2 inhibitors, the treatments length went up to 4, 5 days without splitting.
Cells were counted using a Neubauer hemacytometer. Trypan blue dye was used according to the manufacturer (Sigma-Aldrich, cat. # T8154).
Cell number (as cells/ml) was estimated using the formula [(total count/0.1)/total surface area counted]*(dilution factor), where 0.1 is the chamber depth, considering the appropriate area counted, half dilution for Trypan blue was considered in calculations. Countings were done as quadruplicates every 24 hours.
Quadruplicates values were used for each sample. Experiments were repeated at least 4 times, in order to see if the trend is correct and reproducible.

MEG-01 cells [2] = assay: Apoptosis assay by flow cytometry with AnnexinV-FITC and PI; type: cell-based, human; details: for early apoptotic cells (FL1H+, FL3H−) versus control untreated (DMSO): 72 hours; for early apoptotic cells (FL1H+, FL3H−) versus control untreated (DMSO) / total apoptotic cells (late plus early) versus control untreated (DMSO): p<0.01; for cytotoxicity: MEG-01 cells
Method: For induction of typical apoptosis, cells were cultured with 1 μM Staurosporine (Sigma-Aldrich, cat. # S6942) for 6 hours as recommended in the protocol from the provider. Next the Staurosporine treated cells were stained as follows: (1) with PI, (2) with AnnexinV-FITC and (3) both PI and AnnexinV-FITC in order to have the brightest controls for compensation and proper collection of the flow cytometry data. Cell necrosis was induced by heat shock (65° C. for 30 minutes). Controls for necrosis were stained in the same way as for the Staurosporine treated cells.
In order to establish the effect of the treatments on the apoptosis levels, the non-treated cells (as well as the mock control DMSO) were considered as a control, stained with PI and AnnexinV-FITC and the unstained cells, grown for the same length of treatment. The unstained control signal was subtracted by gating from the stained control and the rest of stained samples, to get only the positive stained cells signal. The stained control, both PI and AnnexinV-FITC labeled, was then used as the reference in establishing the level of apoptosis induced by the treatments.
Samples contained three cell populations of different size and shape and data was collected on logarithmic modes. AnnexinV-FITC corresponds to FL1H channel, and PI to FL3H or FL2H channels. When needed, compensation was done to remove any spillover between the channels. In addition, proper gating was done to characterize each cell population. The population of cells high on FSC and SSC, identified as large, non-granulated particles corresponds to MEG-01 cells. This population is involved in the proplatelets formation and terminal phase of megakaryocytopoiesis and in thrombocytopoiesis. MEG-01 gate is the one of interest in estimating the apoptosis level induced by the treatments.
The Apoptosis AnnexinV-FITC and PI kit from BD Biosciences, CA, USA was used. 105-106 cells were stained with 50 μg/ml propidium iodide (PI) and with 0.5 μg/ml FITC-labeled Annexin V using the staining protocol provided by the supplier. Briefly, cells were counted using a Neubauer hemacytometer, then washed and resuspended in the appropriate amount of AnnexinV-binding buffer 1× (provided in the kit), in order to have the most […] in 100 μl. Then it was used further, as the total reaction volume 100 μl (containing 10^6 cells) to which PI and AnnexinV-FITC was added. Incubation was done for 15 minutes in dark at room temperature. Samples were then analyzed immediately by flow cytometry.
With reference to FIGS. 5-9, apoptosis flow cytometry (AnnexinV-FITC corresponding to FL1H and PI corresponding to FL3H) is depicted. Analyzed and graphed values correspond to frequencies of the parent obtained with FlowJo software version 6.2, after quadrant gating. […] In FIG. 5, apoptotic cells, percentages (FL1H+, FL3H−), after 24 hours of treatment with CK2α inhibitors are depicted. Left bar represents Control untreated (DMSO), middle bar represents DMAT 20 μM treatment and right bar represents TBB 50 μM treatment. The MEG-01 cells were treated for a period of 24 hours. […] Left column represents the Control untreated (DMSO), middle bar represents DMAT 20 μM treatment and right bar represents TBB 50 μM treatment. The MEG-01 cells were treated for a period of 72 hours. […] Left bar represents the Control untreated (DMSO), middle bar represents DMAT 20 μM treatment and right bar represents TBB 50 μM treatment. The MEG-01 cells were treated for a period of 96 hours. […] FIG. 8 illustrates control untreated (DMSO) stained for both Annexin V-FITC and PI, after 24 hours.

MEG-01 cells [3] = assay: Thrombocytopoiesis / proplatelet formation by light, DAPI fluorescence and SEM microscopy; type: cell-based, human; details: for thrombocytopoiesis: MEG-01 cells
Method: For observing the cells with light microscopy and to be able to provide a matrix for them to adhere, Fibronectin (FN), was used at 5 μg/cm^2 and incubated at 37° C. for 1 h, as a coat for the culture dish (6 well plates usually), as recommended by the provider (BD Biosciences, Bedford, Mass., USA) (Jiang et al., 2002).
Cell pictures were routinely taken in the laboratory of using an Olympus CK40 microscope, and the NIH Image software. High quality pictures and live imaging were taken at Cleveland Clinic Foundation Imaging Core.
DAPI staining of cultured MEG-01 cells was done with fresh cells, for live imaging.
Different concentrations of inhibitors were used, and both floating as well as fibronectin bound cells were examined. Proplatelets producing cells were observed as early as from the second day (after 24 hours), but in the third and forth days proplatelets formation was enhanced. […] When such a cell was identified, efforts were taken to focus on it and pictures were taken every 10 seconds for one day.
Cell preparation and pictures were done at the Microscopy Core Facility Cleveland Clinic. Cells were grown for 4 days with DMAT 10 μM and then collected by differential centrifugation. Cells were fixed in glutaraldehyde buffer and then further processed at the Core. The clot was prepared with platelets collected from MEG-01 cultures treated with DMAT 10 μM. Human thrombin 0.5 U/ml for 15 minutes was used to activate them. Then the clot was fixed in suspension.
Referring to FIGS. 10-15, DAPI staining of live MEG-01 cells is illustrated. Apoptotic morphology of MEG-01 cells. In FIG. 10, proplatelets formation in suspension, result of DMAT treatment (10 μM) is shown. FIG. 11 depicts proplatelets formation on Fibronectin, result of DMAT treatment (10 μM). […] This image represents the DAPI staining of cells from FIG. 11. […] FIG. 14 also illustrates phase contrast micrograph of live MEG-01 cells untreated in the 3rd to the 4th day (DMSO), 20×. FIG. 15 illustrates phase contrast micrograph of live MEG-01 cells treated with DMAT 10 μM in the 3rd to the 4th day, 20×. To summarize, FIGS. 10-15 show chromatin condensation, blebbing, cytoplasmic and nuclear fragmentation, as well as polyploidy (increase in the size of the nucleus) of MEG-01 cells following DMAT treatment.

[4] = 50 μM, fourth and fifth days (TBB p<0.01, DMAT p<0.005)

Row | Structure (SMILES) | proliferation (viability) versus Control untreated (DMSO) (MEG-01 cells [1]; 25 μM, fourth and fifth days, p<0.01) | proliferation rate / cell number of MEG-01 cells (MEG-01 cells [1]; 50 μM) | proliferation (viability) versus Control untreated (DMSO) (MEG-01 cells [1]; [4]) | apoptosis (MEG-01 cells [2]; 10 μM, 24 hours) | apoptosis versus non-treated control (MEG-01 cells [2]; 20 μM, 24 hours) | early apoptotic cells (FL1H+, FL3H−) versus control untreated (DMSO) (MEG-01 cells [2]; 20 μM) | total apoptotic cells (late plus early) versus control untreated (DMSO) (MEG-01 cells [2]; 20 μM, 96 hours) | apoptosis compared with TBB (MEG-01 cells [2]; DMAT 20 μM versus TBB 50 μM, 96 hours) | cytotoxicity (MEG-01 cells [2]) | cell surface phenotype by SEM (MEG-01 cells [3]; 10 μM, 3 to 4 days) | maturation and proplatelet formation (MEG-01 cells [3]; 10 μM, as early as from the second day, in suspension and on fibronectin) | thrombocytopoiesis (MEG-01 cells [3]) | proliferation rate / cell number of MEG-01 cells (MEG-01 cells [1]; 100 μM) | proliferation (viability) versus Control untreated (DMSO) (MEG-01 cells [1]; 100 μM, fourth and fifth days, p<0.005) | concentration at which the inhibitor had effect (MEG-01 cells [1]; proliferation arrest and induced apoptosis, TBB concentration required for the same effect as DMAT) [µM] | apoptosis versus non-treated control (MEG-01 cells [2]; 50 μM, 24 hours, p<0.05) | early apoptotic cells (FL1H+, FL3H−) versus control untreated (DMSO) (MEG-01 cells [2]; 50 μM) | total apoptotic cells (late plus early) versus control untreated (DMSO) (MEG-01 cells [2]; 50 μM, 96 hours)
1 | CN(C)c1nc2c(Br)c(Br)c(Br)c(Br)c2[nH]1 [DMAT, 2-dimethylamino-4,5,6,7-tetrabromo-1H-benzimidazole] | very significant statistical differences | maintained a steady number of cells for the 4 days of treatment and induced extremely significant reduction in the proliferation rate | very significant statistical differences | induced apoptosis | extremely significant apoptosis | significant apoptosis after 72 hours | significant apoptosis after 96 hours | induces more apoptosis at a lower concentration than the less specific inhibitor (TBB) | without being cytotoxic | Pseudopodia and proplatelets formation, as well as blebbing can be observed | induced MEG-01 cells to mature and form proplatelets extensions | induced thrombocytopoiesis |  |  |  |  |  | 
2 | Brc1c(Br)c(Br)c2[nH]nnc2c1Br [TBB, 4,5,6,7-tetrabromobenzotriazole] |  |  | very significant statistical differences |  |  |  |  |  | without being cytotoxic |  |  | induced thrombocytopoiesis | maintained a steady number of cells for the 4 days of treatment and induced extremely significant reduction in the proliferation rate | very significant statistical differences | 50 | significant apoptosis | significant apoptosis after 72 hours | significant apoptosis after 96 hours
